Test results from PubChem BioAssay AID248 (DTP/NCI, 2004).
Several values for one entry are separate records, joined by “and”; a condition that tells them apart may be missing. Equal values may be shown once. Inconclusive results and toxic doses are left out.

Tested on: L1210 leukemia ip in BDF1 mice, survival T/C
Experiment: NCI In Vivo Anticancer Drug Screen. Data for tumor model L1210 Leukemia (intraperitoneal) in B6D2F1 (BDF1) mice
Conditions: endpoint: mean survival time, higher = longer survival
How it was run: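 Value reflects the ratio of survival in compound-treated mice to survival in vehicle-treated controls, with both groups carrying the same transplanted tumor.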

[1] = dose: 25.0 mg/kg/injection, schedule: Q01DX009 (ip), vehicle: saline with Tween-80
[2] = dose: 100.0 mg/kg/injection, schedule: Q01DX009 (ip), vehicle: saline with Tween-80
[3] = dose: 100.0 mg/kg/injection, schedule: Q04DX003 (ip), vehicle: saline with Tween-80
[4] = dose: 200.0 mg/kg/injection, schedule: Q01DX009 (ip), vehicle: saline with Tween-80
[5] = dose: 100.0 mg/kg/injection, schedule: Q01DX001 (ip), vehicle: saline
[6] = dose: 200.0 mg/kg/injection, schedule: Q01DX001 (ip), vehicle: saline
[7] = dose: 400.0 mg/kg/injection, schedule: Q01DX009 (ip), vehicle: saline with Tween-80
[8] = dose: 100.0 mg/kg/injection, schedule: Q01DX009 (ip), vehicle: Klucel (hydroxypropylcellulose) (HPC)
[9] = dose: 200.0 mg/kg/injection, schedule: Q01DX009 (ip), vehicle: Klucel (hydroxypropylcellulose) (HPC)
[10] = dose: 100.0 mg/kg/injection, schedule: Q01DX001 (ip), vehicle: carboxymethylcellulose (CMC)
[11] = dose: 200.0 mg/kg/injection, schedule: Q01DX001 (ip), vehicle: carboxymethylcellulose (CMC)
[12] = dose: 400.0 mg/kg/injection, schedule: Q01DX001 (ip), vehicle: carboxymethylcellulose (CMC)
[13] = dose: 200.0 mg/kg/injection, schedule: Q04DX003 (ip), vehicle: saline with Tween-80
[14] = dose: 400.0 mg/kg/injection, schedule: Q04DX003 (ip), vehicle: saline with Tween-80

`CC1CC(C)(C)N=C(C2(c3ccccc3)CC2)O1` (stereo not given) was tested, and the T/C [1] was 102 % of control, the T/C (dose: 50.0 mg/kg/injection, schedule: Q01DX009 (ip), vehicle: saline with Tween-80) was 98 % of control and the T/C (dose: 50.0 mg/kg/injection, schedule: Q04DX003 (ip), vehicle: saline with Tween-80) was 88 % of control. The T/C [2] was 100 % of control, the T/C [3] was 95 % of control and the T/C [4] was 98 % of control.

`O=C1C(c2ccc(O)cc2)C2C=CC(C2)N1O` (stereo not given) was tested, and the T/C [5] was 95 % of control, the T/C [6] was 103 % of control and the T/C (dose: 400.0 mg/kg/injection, schedule: Q01DX001 (ip), vehicle: saline) was 95 % of control.

`CCOC(=O)c1ccccc1N=Nc1cc(OC)c(N)cc1OC` was tested, and the T/C (dose: 5.0 mg/kg/injection, schedule: Q01DX001 (ip), vehicle: other) was 101 % of control, the T/C (dose: 10.0 mg/kg/injection, schedule: Q01DX001 (ip), vehicle: other) was 111 % of control and the T/C (dose: 20.0 mg/kg/injection, schedule: Q01DX001 (ip), vehicle: other) was 114 % of control.

With `NS(=O)(=O)c1ccc(N=Cc2ccccc2)cc1` the T/C [2] was 89 % of control, the T/C [4] was 92 % of control and the T/C [7] was 94 % of control.

For `OCCOc1ccc(Cl)cc1`, the T/C [2] was 98 % of control, the T/C [4] was 110 % of control and the T/C [7] was 102 % of control.

For `O=S(=O)(CCN1CCCCC1)c1ccc(F)cc1`, the T/C [5] was 100 % of control and the T/C [6] was 100 % of control.

For `CSc1ccc2c(c1)-c1ccccc1C2=O`, the T/C (dose: 100.0 mg/kg/injection, schedule: Q04DX003 (ip), vehicle: acetone) was 94 % of control, the T/C (dose: 200.0 mg/kg/injection, schedule: Q04DX003 (ip), vehicle: acetone) was 89 % of control and the T/C (dose: 400.0 mg/kg/injection, schedule: Q04DX003 (ip), vehicle: acetone) was 93 % of control.

With `CC(C)CN1CC(Br)C(=O)NC1=O` (stereo not given) the T/C (dose: 25.0 mg/kg/injection, schedule: Q01DX Z (ip), vehicle: methylcellulose (MC)) was 92 % of control and the T/C (dose: 50.0 mg/kg/injection, schedule: Q01DX Z (ip), vehicle: methylcellulose (MC)) was 88 % of control.

For `CC(C)(c1cc(Cl)c(OCCO)c(Cl)c1)c1cc(Cl)c(OCCO)c(Cl)c1`, the T/C [2] was 103 % of control, the T/C [4] was 103 % of control and the T/C [7] was 95 % of control.

For `CC1=Nc2ccccc2/C1=C/c1c(O)[nH]c(=O)[nH]c1=O`, the T/C (dose: 37.5 mg/kg/injection, schedule: Q01DX Z (ip), vehicle: carboxymethylcellulose (CMC)) was 103 % of control, the T/C (dose: 75.0 mg/kg/injection, schedule: Q01DX Z (ip), vehicle: carboxymethylcellulose (CMC)) was 103 % of control and the T/C (dose: 150.0 mg/kg/injection, schedule: Q01DX Z (ip), vehicle: carboxymethylcellulose (CMC)) was 100 % of control. The T/C (dose: 300.0 mg/kg/injection, schedule: Q01DX Z (ip), vehicle: carboxymethylcellulose (CMC)) was 103 % of control.

With `CC#CC1(O)CCC2C3CC(C)C4CC(=O)CCC4(C)C3CCC21C` (stereo not given) the T/C (dose: 146.0 mg/kg/injection, schedule: Q01DX Z (sc), vehicle: steriod suspending solution) was 108 % of control, the T/C (dose: 222.0 mg/kg/injection, schedule: Q01DX Z (sc), vehicle: steriod suspending solution) was 112 % of control and the T/C (dose: 333.0 mg/kg/injection, schedule: Q01DX Z (sc), vehicle: steriod suspending solution) was 112 % of control. For the same molecule, the T/C (dose: 500.0 mg/kg/injection, schedule: Q01DX Z (sc), vehicle: steriod suspending solution) was 106 % of control.

With `C=CS(=O)(=O)CCOc1ccc(Cl)cc1Cl` the T/C [8] was 96 % of control and the T/C [9] was 95 % of control.

For `CC[CH2][Sn]([CH2]CC)([CH2]CC)[CH2]Cc1ccncc1`, the T/C (dose: 6.25 mg/kg/injection, schedule: Q04DX002 (ip), vehicle: saline with Tween-80) was 101 % of control, the T/C (dose: 12.5 mg/kg/injection, schedule: Q04DX002 (ip), vehicle: saline with Tween-80) was 93 % of control and the T/C (dose: 25.0 mg/kg/injection, schedule: Q04DX002 (ip), vehicle: saline with Tween-80) was 89 % of control.

For `C1=CC(c2ccccc2)=C(c2ccccc2)C(c2ccccc2)C(c2ccccc2)=C1` (stereo not given), the T/C (dose: 50.0 mg/kg/injection, schedule: Q01DX001 (ip), vehicle: carboxymethylcellulose (CMC)) was 94 % of control, the T/C [10] was 96 % of control and the T/C [11] was 96 % of control. For the same molecule, the T/C [12] was 89 % of control.

In the case of `CN=C(c1ccc(NC(=O)c2ccc(C(=O)Nc3ccc(C(=NC)N(C)C)cc3)c(Cl)c2)cc1)N(C)C`, the T/C (dose: 0.94 mg/kg/injection, schedule: Q01DX Z (ip), vehicle: saline) was 98 % of control and the T/C (dose: 1.88 mg/kg/injection, schedule: Q01DX Z (ip), vehicle: saline) was 87 % of control.

For `CC12CCC(O)C(CC1)C2` (stereo not given), the T/C [3] was 107 % of control, the T/C [13] was 88 % of control and the T/C [14] was 95 % of control.

For `Nc1ccc(N=Nc2ccc(O)cc2)c(N)n1`, the T/C [5] was 92 % of control and the T/C [6] was 107 % of control.

With `O=C(Nc1ccc(Cl)cc1)Nc1ncc(Cl)s1` the T/C [8] was 94 % of control, the T/C [9] was 96 % of control and the T/C (dose: 400.0 mg/kg/injection, schedule: Q01DX009 (ip), vehicle: Klucel (hydroxypropylcellulose) (HPC)) was 89 % of control.

`O=S(=O)(OCC1CC2C=CC1C2)c1ccc(Br)cc1` (stereo not given) was tested, and the T/C (dose: 100.0 mg/kg/injection, schedule: Q04DX003 (ip), vehicle: other) was 86 % of control, the T/C (dose: 200.0 mg/kg/injection, schedule: Q04DX003 (ip), vehicle: other) was 89 % of control and the T/C (dose: 400.0 mg/kg/injection, schedule: Q04DX003 (ip), vehicle: other) was 89 % of control.

`C[C@H](OC(=O)CCl)[C@@H](C)OC(=O)CCl` was tested, and the T/C (dose: 50.0 mg/kg/injection, schedule: Q01DX001 (sc), vehicle: carboxymethylcellulose (CMC)) was 109 % of control and the T/C (dose: 100.0 mg/kg/injection, schedule: Q01DX001 (sc), vehicle: carboxymethylcellulose (CMC)) was 88 % of control.

In the case of `CC12CCCCC1SC(F)(F)C2(F)F` (stereo not given), the T/C (dose: 12.5 mg/kg/injection, schedule: Q01DX009 (ip), vehicle: saline with Tween-80) was 95 % of control and the T/C [1] was 98 % of control.

For `O=C(O)C12CCC1(Cl)CC2` (stereo not given), the T/C (dose: 50.0 mg/kg/injection, schedule: Q04DX002 (ip), vehicle: Klucel (hydroxypropylcellulose) (HPC)) was 104 % of control, the T/C (dose: 100.0 mg/kg/injection, schedule: Q04DX002 (ip), vehicle: Klucel (hydroxypropylcellulose) (HPC)) was 97 % of control and the T/C (dose: 200.0 mg/kg/injection, schedule: Q04DX002 (ip), vehicle: Klucel (hydroxypropylcellulose) (HPC)) was 108 % of control.

In the case of `O=C(OCn1ncc2ccc([N+](=O)[O-])cc21)c1ccc(Cl)c(Cl)c1`, the T/C [10] was 101 % of control, the T/C [11] was 93 % of control and the T/C [12] was 95 % of control.

With `CN(N=O)C(=O)Nc1c[nH]c(=O)[nH]c1=O` the T/C (dose: 10.0 mg/kg/injection, schedule: Q01DX Z (ip), vehicle: carboxymethylcellulose (CMC)) was 172 % of control, the T/C (dose: 20.0 mg/kg/injection, schedule: Q01DX Z (ip), vehicle: carboxymethylcellulose (CMC)) was 207 % of control and the T/C (dose: 27.0 mg/kg/injection, schedule: Q01DX Z (ip), vehicle: saline) was 151 % of control. The T/C (dose: 40.0 mg/kg/injection, schedule: Q01DX Z (ip), vehicle: carboxymethylcellulose (CMC)) was 239 % of control, the T/C (dose: 40.5 mg/kg/injection, schedule: Q01DX Z (ip), vehicle: saline) was 159 % of control and the T/C (dose: 50.0 mg/kg/injection, schedule: Q01DX Z (ip), vehicle: carboxymethylcellulose (CMC)) was 165 % of control and 206 % of control. For the same molecule, the T/C (dose: 60.0 mg/kg/injection, schedule: Q01DX Z (ip), vehicle: carboxymethylcellulose (CMC)) was 183 % of control, the T/C (dose: 60.7 mg/kg/injection, schedule: Q01DX Z (ip), vehicle: saline) was 162 % of control and the T/C (dose: 80.0 mg/kg/injection, schedule: Q01DX Z (ip), vehicle: carboxymethylcellulose (CMC)) was 101 % of control. The T/C (dose: 91.1 mg/kg/injection, schedule: Q01DX Z (ip), vehicle: saline) was 98 % of control, the T/C (dose: 240.0 mg/kg/injection, schedule: Q01DX001 (ip), vehicle: saline) was 185 % of control and the T/C (dose: 480.0 mg/kg/injection, schedule: Q01DX001 (ip), vehicle: saline) was 188 % of control. For the same molecule, the T/C (dose: 960.0 mg/kg/injection, schedule: Q01DX001 (ip), vehicle: saline) was 173 % of control.

In the case of `CN(C)CCN(C)/N=N/c1nc[nH]c1C(N)=O`, the T/C (dose: 100.0 mg/kg/injection, schedule: Q01DX001 (ip), vehicle: saline with Tween-80) was 101 % of control, the T/C [2] was 108 % of control and the T/C [3] was 108 % of control. For the same molecule, the T/C (dose: 200.0 mg/kg/injection, schedule: Q01DX001 (ip), vehicle: saline with Tween-80) was 95 % of control, the T/C [4] was 100 % of control and the T/C [13] was 113 % of control. For the same molecule, the T/C (dose: 400.0 mg/kg/injection, schedule: Q01DX001 (ip), vehicle: saline with Tween-80) was 110 % of control, the T/C [7] was 95 % of control and the T/C [14] was 106 % of control.
